The source of these data is patent US4215136A, “Insoluble metal salts of N-acetyl-tryptophane and use thereof” (Cooperation Pharmaceutique Francaise, priority 1976, dated 1980).

Data set [1] is classed as in vivo, male rats. An excerpt:
(B) Interaction with a MAOI after treatment with P.C.P.A.
If the test is renewed under the same conditions but on male rats previously treated by decreasing doses of P.C.P.A. which is a tryptophane-hydroxylase inhibitor, it is observed that: […]

The nature of data set [2]: Activity on intestinal passage (vegetable carbon). Format: in vivo, male mice. To be noted: 2, 4 and 6 g/kg buccally; 10 minutes. The procedure:
II--Activity on intestinal passage:
Male mice, fasting for 24 hours, weighing 18-20 g. were used.
The substances to be tested were administered buccally before a suspension of vegetable carbon (10 g/100 ml).
After 10 minutes, the animals were bled and the intestine was removed and examined.

For data set [3] the following is noted: 8640 min.
Data set [4] can be described thus: Interaction with a monoamine-oxidase inhibitor (MAOI, Tylciprine). Format: in vivo, Sprague-Dawley male rats of OFA strain. To be noted: for central nervous action indicated by hyperthermia and hyperactivity: with MAOI (Tylciprine). The procedure: III--Action on the central nervous system:
(A) Interaction with a monoamine-oxidase inhibitor (MAOI):
Sprague-Dawley male rats of OFA strain received 20 mg/kg intra peritoneally of Tylciprine (MAOI) and twenty minutes later, 3 g/kg of compound A (D,L) bucally.

Data set [5] can be described thus: "Shay ulcer" test (pylorus ligature). Format: in vivo, female rats (Sprague-Dawley OFA Iffa-Credo). On the procedure: (A) Tests by the technique called "Shay ulcer" [Gastroenterology, 5, 43, (1945)].
The study was carried out on female rats [Sprague-Dawley OFA Iffa-Credo] weighing 170±10 g, conforming to the experimental protocol described below.
After fasting 48 hours, during which the rats had always available to them a 20% glucose solution, the pylorus was ligated and all beverage was eliminated.
Compound A in the form of two suspensions respectively 5 and 10% in distilled water containing 3% of gum arabic was administered orally and before the ligature of the pylorus to three groups of animals, the animals of the first two groups receiving the 5% solution and those of the third the 10% solution. These three groups of animals received active substance to the extent respectively of 250 mg/kg as regards those of the first group, 500 mg/kg as regards those of the second and 1000 mg/kg those of the third. A fourth group and control group of animals received 10 ml/kg of bidistilled water. […]
The tests having been carried out with aluminium acetyl-tryptophanate (compound A), on the one hand, and with titanium acetyl-tryptophanate (compound B), on the other hand, for each of these compounds there was determined, the "anti-ulcer dose 50" (or again active dose AD 50) by oral administration; for this determination the method of Litchfield and Wilcoxon [J. Pharmacol. 96, 98-111 (1949)], was employed. […]

Data set [6] in a line: "stress ulcer" technique aggravated by para-chloro-phenyl-alanine (PCPA). The class given is in vivo, female S.P.F. Sprague-Dawley OFA Iffa-Credo rats. Conditions: PCPA 100 mg/kg intraperitoneally. On the procedure:
(C) Tests according to the "stress ulcer" technique aggravated by para-chloro-phenyl-alanine (PCPA) administered in a non-blocking dose.
The rats used were of the same sex, same strain and had the same weight as those used in the tests described under B. The experimental protocol was also the same.
However, in these tests the rats received intraperitoneally, at the time of stressing, 100 mg/kg of PCPA in suspension in distilled water including 3% of gum arabic and an "absolute control" group was provided having received no preparation before placing under stress.
By reason of the aggravation of the ulcers caused by the PCPA, the Lwoff assessment is no longer usable and is replaced by the following:
2 : three to four ulcers in the form of
5 : one to two ulcers in the form of "fur-
6 : three to four ulcers least 5 mm in length
with a maximum of 4 + 6 = 10.
In this way it was possible to determine the ulceration index and the percentage inhibition with respect to the controls.

The nature of data set [7]: "stress ulcer" test (immobilization). The class given is in vivo, female S.P.F. Sprague-Dawley OFA Iffa-Credo rats. The procedure: (B) Tests according to the technique called "stress ulcer". Rossi and Bonfils--Compte rendus de la Societe de Biologie, (1956), 150, page 2124.
The study was carried out on female S.P.F. Sprague-Dawley OFA Iffa-Credo rats, weighing 140±10 g and adhering to the following experimental protocol.
To cause the ulcer, the animals were immobilized in a flexible grid with meshes of 4×4 mm and suspended horizontally; they received neither food nor drink. They were sacrificed at the end of 24 hours. The stomachs were removed and opened and then the ulcers were counted with a binocular lens.
Each stomach was assessed according to the method of J. M. LWOFF and the ulceration index calculated.
The compound A suspended in distilled water with 3% of gum arabic was administered 48 hours and 24 hours before and at the time of placing under stress to three groups of animals. These animals each received by the oral route, 500, 1000 and 1500 mg/kg of this compound according to their group.
A control group received for three days, orally gummy water in the amount of 1 ml/100 g.
As in the case of "Shay ulcer" the same study was reproduced with kaolin.
The kaolin was suspended in distilled water with 3% of gum arabic and was administered by the buccal route 48 hours and 24 hours before and at the time of placing under stress. […]

Data set [8] in a line: anti-ulcer activity after administering reserpine. To be noted: p.o., 3 hours before and 3 hours after reserpine 5 mg/kg i.p.; Litchfield and Wilcoxon; 1200 min. Format: in vivo, Sprague-Dawley female rats, OFA S.P.F. Iffa Credo strain. The procedure:
(D) Study of the anti-ulcer activity of compound A (D,L) and of compound B (D,L) after administering reserpine.
The technique used was that of Cohen and A. Pessonnier (Ann. Pharm. Fr (1963) 21, 215-22) according to the following protocol:
Sprague-Dawley female rats were used, of OFA S.P.F. Iffa Credo strain weighing 150±20 g; the rats received a single injection by the intraperitoneal route of 5 mg/kg of reserpine in solution in 0.25% acetic acid; the compound studied were administered twice by the buccal route: three hours before and three hours after the injection of reserpine; the rats were sacrificed 20 hours after the injection of reserpine; the assessment was established as follows:
1 = one to two ulcers in the form of small
2 = more than two ulcers
3 = one to two ulcers in the form of more or
4 = more than two ulcers
5 = one to two ulcers in the form of "furrows"
measuring at least 5 mm
6 = more than two ulcers
Maximum assessment for one stomach : 2 + 4 + 6 = 12
From the results obtained the ulceration index was deduced; the percentage of inhibition was calculated with respect to the index obtained in the controls.
The values of the AD50 calculated according to the method of Litchfield and Wilcoxon are: […]

Setting [9] is: after PCPA 6 mg/kg for 1 day, Tylciprine.
The mark [10] stands for this setting: 2 g/kg, Tylciprine 20 mg/kg i.p.
The mark [11] stands for this setting: 3 g/kg bucally, Tylciprine 20 mg/kg i.p.

Where two headings read alike, the source gives them in different places.

Turning to `CC(=O)N[C@@H](Cc1c[nH]c2ccccc12)C(=O)[O-].CC(=O)N[C@@H](Cc1c[nH]c2ccccc12)C(=O)[O-].CC(=O)N[C@@H](Cc1c[nH]c2ccccc12)C(=O)[O-].[Al+3]` [Compound A, monobasic-(DL) aluminium N-acetyl-tryptophanate], in data set [1] (setting [9]), the hyperactivity result is on record as “notable hyperactivity” and the rectal temperature entry is “without variation in the rectal temperature”. In addition, the hyperactivity result in data set [1] (after PCPA 12.5 mg/kg for 1 day, Tylciprine) is “first signs of hyperactivity”. Besides, the hyperthermia and hyperactivity result in data set [1] (after PCPA 50 mg/kg for 2 days, Tylciprine) is recorded as “neither hyperthermia nor hyperactivity”. Moreover, in data set [1] (rat, in vivo), the “passage through the hemato-cerebral barrier” value is on record as “passage of its anion through the hemato-cerebral barrier”. The “increase of intestinal passage with respect to the controls” value in data set [2] is “No significant increase”. Besides, in data set [3] (oral, six days), the “LD50 (higher than the total dose without mortality)” value was greater than 15000 mg/kg. The “LD 50” value in data set [3] (orally) was greater than 15000 mg/kg. Moreover, in data set [4] (setting [10]), the hyperactivity entry is “notable hyperactivity” and the hyperthermia entry is given as “does not cause hyperthermia”. For the same molecule, the hyperthermia result in data set [4] (3 g/kg bucally, 20 minutes after Tylciprine 20 mg/kg i.p.) is “Hyperthermia was observed which commenced fairly rapidly”. In data set [4] (setting [11]), the hyperactivity entry is “hyperactivity”, the onset of hyperactivity is 80 min, the “time of maximum hyperactivity” value worked out at 155 min and the “time of maximum hyperthermia” value was 185 min. Further, the “central nervous action indicated by hyperthermia and hyperactivity” value in data set [4] was “apparently central nervous serotoninergic action, that is to say antidepressive”. Further, the “activity relative to that expected by reason of Al^3+ / Ti^4+ ions alone” value in data set [5] (Shay ulcer) is listed as “about 7 times higher”. Also, the “AD 50 (anti-ulcer dose 50), Shay ulcer” value in data set [5] (oral, before ligature of the pylorus, 18 hours, Litchfield and Wilcoxon) stood at 550 mg/kg. Moreover, in data set [6], the “anti-ulcer activity, stress ulcer aggravated by PCPA (in words)” value is “still considerable”. In addition, in data set [6] (oral route), the “AD50, stress ulcer aggravated by PCPA” value is recorded as 1325 mg/kg. The “AD 50, stress ulcer” value in data set [7] (buccal route, 48 h and 24 h before and at time of stress, sacrificed at 24 hours) is reported as 700 mg/kg. For the same molecule, the “superiority of compound A (over kaolin), stress ulcer versus Shay ulcer” value in data set [7] (stress ulcer compared with Shay ulcer) was “still much more marked”. Besides, in data set [8], the “AD50, reserpine ulcer” value was determined as 1447 mg/kg.

As for `N[C@@H](Cc1c[nH]c2ccccc12)C(=O)O` [L-tryptophane], the “central nervous action indicated by hyperthermia and hyperactivity” value in data set [4] is “comparable activities”.
